In PubChem BioAssay AID588780 (Sanford-Burnham Center for Chemical Genomics, 2011):
Calls of active or inactive are those of the source.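 The calls were made as follows: active = compounds whose fitted half-maximal concentration in the cell-protection dose series is at or below a set limit; inactive = the rest.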

tested on: H9c2 cardiomyocytes, 2-deoxyglucose stress, ATP luminescence, 2 h; assay: protection of cardiomyocytes from 2-deoxyglucose injury, dose response, cell-based, 2-deoxyglucose stress, uHTS hits (AID 588780)

Structure (SMILES) | IC50
COc1ccc(C(=O)COc2ccccc2C(N)=O)cc1 | > 79 µM (inactive)
Cc1cc(C)cc(OCC(=O)Nc2cccc(-c3nnc(-c4ccco4)o3)c2)c1 | > 79 µM (inactive)
CC(=O)Nc1cccc(-c2cc(NC(C)=O)c3ncc(-c4cccc(C(C)=O)c4)n3c2)c1 | > 79 µM (inactive)
CC1(C)CC2C1CCC1(O)CC2(C)CCC1N(O)c1ccc(C(=O)NCCO)cn1 (stereo not drawn) | 28.5 µM
CCN(CC)CCNC(=O)CCc1n[nH]c(=O)c2ccccc12 | > 79 µM (inactive)
Cc1c(C(=O)NCC2COc3ccccc3O2)oc2ccc(S(=O)(=O)N3CCOCC3)cc12 (stereo not drawn) | > 79 µM (inactive)
COc1ccc(S(=O)(=O)N2CC(O)CC2C(=O)OCc2nc3sc(C)c(C)c3c(=O)[nH]2)cc1 (stereo not drawn) | > 79 µM (inactive)
Cc1ccc(OCCOC(=O)CCc2nc3ccccc3c(=O)[nH]2)cc1 | > 79 µM (inactive)
NC(=O)c1nsc(C(=O)N(c2ccccc2F)C(C(=O)NCc2ccc(F)cc2)c2ccc(O)cc2)c1N (stereo not drawn) | > 79 µM (inactive)
C#Cc1cc(N2CCN(C(=O)c3ccoc3)CC2)n2nc(-c3cccc(Cl)c3)cc2n1 | > 79 µM (inactive)
COc1cc(-c2cnc3c(NC=O)cc(-c4cccnc4)cn23)cc(OC)c1OC | 30 µM
CC(=O)c1ccccc1OCCCN1CCCCC1 | > 79 µM (inactive)
CCOC(=O)c1c2c3c(cccc3n(C)c1=O)C(=O)c1ccccc1-2 | > 79 µM (inactive)
CCOC(=O)c1cc2c(=O)n3cccc(C)c3nc2n(CCCOC)c1=NC(=O)c1cccnc1 | > 79 µM (inactive)
C1=C(c2ccccc2)CCN(c2nc3ccccc3n3cnnc23)C1 | 27.6 µM
c1ccc(CN2CCN(CCCNc3ccc4nnc(-c5ccccc5)n4n3)CC2)cc1 | 13.8 µM
CCN(CC)S(=O)(=O)c1cccc(C(=O)N/N=C/c2ccccn2)c1 | > 79 µM (inactive)
COc1cc(OC)cc(C(=O)Nc2ccc(-c3nc4ccccc4o3)cc2)c1 | > 79 µM (inactive)
COc1ccc(CNn2c(-c3cccs3)nc3ccccc3c2=O)cc1OC | 11.8 µM

Structure (SMILES) | IC50
CC(C)(C)OC(=O)NCCCCCNC(=O)c1[nH]cnc1C(=O)Nc1ccc(Cl)cc1 | > 79 µM (inactive)
COC(=O)/C=C/c1ccc(OC(=O)OC)c(OC(=O)OC)c1 | > 79 µM (inactive)
CSc1nnc(NC(=O)c2cc3ccccc3oc2=O)s1 | > 79 µM (inactive)
Cc1ccc(NC(=O)c2cc(-c3cccs3)nc3ccccc23)nc1 | 9.88 µM
Cc1ccc(-c2nnc3ccc(SCC(=O)N4CCCc5ccccc54)nn23)cc1 | > 79 µM (inactive)
CCOC(=O)C1=c2s/c(=C\c3ccncc3)c(=O)n2C(N)=C(C(=O)OC)C1c1ccncc1 (stereo not drawn) | > 79 µM (inactive)
CC(OC(=O)Cn1[nH]c(=O)c2ccccc2c1=O)C(=O)NC1(C#N)CCCCC1 (stereo not drawn) | > 79 µM (inactive)
CCOC(=O)c1cccc(C2=C(CNC(=O)c3cccnc3)[C@H]3CC[C@@H](C2)N3Cc2ccccc2)c1 | > 79 µM (inactive)
C[C@@H]1CN([C@H](C)CO)S(=O)(=O)c2ccc(C#Cc3ccccc3F)cc2O[C@H]1CN(C)C(=O)c1ccc2c(c1)OCO2 | > 79 µM (inactive)
CCOC(=O)COc1ccc2c3c(c(=O)oc2c1)CCCC3 | > 79 µM (inactive)
C/C(=N\NC(=O)c1c(Br)c(C)nn1C)c1ccc(NC(=O)c2ccoc2C)cc1 | > 79 µM (inactive)
O=C(COc1ccc([N+](=O)[O-])cc1)Nc1nc(-c2ccccn2)cs1 | > 79 µM (inactive)
COc1ccccc1OCC(=O)N/N=C/c1cccc2cccnc12 | 49.2 µM (inactive)
CCOC(=O)Cc1n[nH]c(=O)c2ccccc12 | > 79 µM (inactive)
Cc1c(O)ccc2c(-c3ccccc3)cc(=O)oc12 | 24.5 µM
CC(C)COP(=O)(OCC(C)C)C(Nc1ccccc1)c1ccc2c(c1)OCO2 (stereo not drawn) | > 79 µM (inactive)
CCSc1nnc(NC(=O)C2Cc3ccccc3CN2S(=O)(=O)CC)s1 (stereo not drawn) | 43.6 µM (inactive)
COc1cc(C(=O)Nc2nc(-c3cccs3)cs2)cc(OC)c1OC | 7.2 µM
Cn1c(NCc2ccco2)nc2c1c(=O)n(Cc1ccc(Cl)cc1)c(=O)n2C | 31.3 µM (inactive)
